PubChem BioAssay AID789 (SRMLSC, 2007)
Active and inactive are the calls of the source. No rule for the calls is given here.

Tests used:
[1] = growth inhibition of apl2Δ yeast, dose response, selectivity assay for post-Golgi transport modulator project, S. cerevisiae, secondary screen, background strain comparison (AID 789); details: S. cerevisiae background (wild-type parent) strain growth inhibition
[2] = tested on: S. cerevisiae apl2Δ mutant growth inhibition; assay: as above

Row | SMILES | IC50 [1] [µM] | IC50 [2]
1 | Nc1ccc(Oc2ccc3nc(-c4ccccc4)c(-c4ccccc4)nc3c2)cc1 | 1.21 | 2 µM (inactive)
2 | CCC(C)(C)NC(=O)CN(C(=O)CCC(=O)Nc1ccccn1)c1ccc(F)c(Cl)c1 | > 10 | > 10 µM (inactive)
3 | O=C(O)c1ccc(N2CCCCC2)cc1 | > 10 | > 10 µM (inactive)
4 | Clc1cc(Br)ccc1OCCOCCN1CCOCC1 | > 10 | > 10 µM (inactive)
5 | CCN(CC)CCCN(Cc1cc2cc3c(cc2[nH]c1=O)OCCO3)C(=O)Nc1ccc(F)cc1 | > 10 | > 10 µM (inactive)
